The results in this text go back to PubChem BioAssay (NCI).

SMILES strings stand for the structures.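 These data come from cells grown in 96-well plates and exposed to compound for 48 hours at five concentrations. Abbreviation: GI50, concentration required for 50% inhibition of growth. TGI denotes the concentration required for complete inhibition of growth.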 Where only a bound is given, the exact number is not on record here.

What all share (test): inhibition of tumour cell growth, NCI panel, 48 h
For assay [1], the system named is SK-MEL-28 melanoma.
The subject of assay [2] is EKVX NSCLC.
The subject of assay [3] is MDA-MB-435.
For assay [4], the system named is ACHN renal.
In assay [5] the test system is SK-OV-3 ovarian.
Assay [6] relates to RPMI-8226 leukemia.
Assay [7] deals with NCI-H23 lung.
For assay [8], the system named is SNB-19 CNS.
Assay [9] has as its system HT29 colon.
Assay [10] has as its system CCRF-CEM leukemia.
The subject of assay [11] is NCI/ADR-RES ovarian.

Turning to `Fc1ccc2[nH]cc(-c3nc(-c4c[nH]c5ncccc45)cs3)c2c1`, the values for the GI50 in assay [1], in [2] and in assay [3] were more than 100 µM, 3.34 µM and 12.5 µM, respectively. Also, the TGI in assay [1], in assay [2] and in assay [3] was more than 100 µM in each case.

As to `O=[N+]([O-])c1nc(-c2ccccn2)[nH]c1[N+](=O)[O-]`, the TGI in assay [1], in [2], in assay [4], in assay [5], in [6] and in assay [7] was more than 100 µM each time. In addition, the TGI in assay [8], in [9] and in assay [10] was more than 100 µM in each case.

On to `COC1=C2CC(C)CC(OC)C(O)C(C)/C=C(\C)C(OC(N)=O)C(OC)/C=C\C=C(/C)C(=O)NC(=C(C=NC(C)(C)C)C1=O)C2=O` (stereo not given), for which the TGI is 11.7 µM in [1]; 26 µM in [2]; 67.3 µM in assay [5]; 13.5 µM in assay [6]; 5.17 µM in assay [7]; 26.9 µM in assay [8]. In addition, the TGI in assay [9] was 21 µM; in [10], 22.2 µM; in assay [11], 44.4 µM.

As for `Nc1ncnc2c1ncn2C1OC(COP(=O)(O)O)C(O)C1O` (stereo not given), the TGI in assay [1], in assay [2], in assay [5], in assay [6], in assay [7] and in assay [8] was more than 50 µM each time. For the same compound, the TGI in [9] was more than 50 µM; in assay [10] it was more than 50 µM; in assay [11], more than 32.2 µM.

Consider `O=C1OC(c2ccccc2)=N/C1=C\c1cccnc1`, for which the TGI in [1], in assay [2], in [4], in assay [3], in [5] and in assay [6] was more than 100 µM throughout. For the same compound, the TGI in assay [7], in assay [8], in assay [9], in assay [10] and in [11] was more than 100 µM each time.

`CCOC(=O)NC(Nc1ncccn1)(C(F)(F)F)C(F)(F)F`: the TGI in assay [1], in [2], in [4], in [3], in [5] and in assay [6] was more than 100 µM in each case. The TGI in [7], in [8], in [9] and in [10] was more than 100 µM each time.

Turning to `CC(=O)OC1C(C)OC(Oc2c(C)c3c4c(c2O)[C@@H](C)CC[C@@H]4[C@@H](C)C[C@H]3C=C(C)C)C(O)C1O` (stereo not given in full), the GI50 in assay [3] is 2.13 µM; in [8], 3.41 µM; in assay [11] it was 2.96 µM. Moreover, the TGI is 4.49 µM in assay [3], more than 100 µM in assay [8] and 9.13 µM in [11].

`N/C(=N\N=C/c1ccccc1O)NO`: the TGI was more than 100 µM in [1]; 71.4 µM in assay [2]; more than 87.1 µM in assay [5]; 27 µM in assay [6]; 53.9 µM in assay [7]; more than 91.3 µM in [8]. In addition, the TGI is more than 42 µM in assay [9], more than 50.9 µM in [10] and 44.2 µM in [11].

Consider `CCS(=O)(=O)N1CCC(C(C)n2c(C)c(C(=O)NCc3c(OC)cc(C)[nH]c3=O)c3ccccc32)CC1` (stereo not given), for which the GI50 in [1], in [2], in [4], in assay [3], in [5] and in assay [7] was more than 100 µM in each case. The GI50 in [9] and in assay [11] was more than 100 µM each time. In addition, the TGI in assay [1], in assay [2], in assay [4], in assay [3], in assay [5] and in assay [7] was more than 100 µM in each case. Also, the TGI in [9] and in [11] was more than 100 µM throughout.

For the compound `O=C1OC[C@@H]2[C@@H](O)CCCCCN12`, the TGI in assay [1], in [2], in assay [4], in assay [3], in assay [5] and in [6] was more than 100 µM throughout. The TGI in [8], in assay [9], in assay [10] and in assay [11] was more than 100 µM each time.

With `COc1cc2c(cc1OC)-c1cc3ccccc3c[n+]1CC2`, the TGI in assay [1], in assay [2], in [4], in assay [3], in assay [5] and in assay [6] was more than 100 µM throughout. Moreover, the TGI in assay [7], in assay [8], in assay [9], in assay [10] and in [11] was more than 100 µM each time.

For `CC1(C)CC23C4COC(=O)C2CCC1C3CC4=O` (stereo not given), the TGI in assay [1] was 18.9 µM; in assay [2], 83.8 µM; in [5], 104 µM; in [6], 48.6 µM; in assay [7], 10.8 µM; in assay [8], 81.2 µM. The TGI in assay [9] worked out at 95.2 µM; in [10], 43.4 µM; in assay [11] it was 24.8 µM.
